Test results reported in patent US20250228873A1, “C25 R AND S ISOMERS OF AMINOSTEROLS AND METHODS OF MAKING AND USING THE SAME” (Enterin, Inc., priority 2022, published 2025).
Several values for one entry are separate records, joined by “and”; a condition that tells them apart may be missing. Identical values can stand only once. Entries after “also recorded” stand apart in the source; their conditions may differ. Like-named read-outs stand apart in the source and are kept apart here.

Tests used:
stomach tissues = assay: Stomach RNA-sequencing, ENT-02 (MSI-1436) treatment and congruence with ENT-03 (Example 10); type: in vivo, mice
Method: Samples of stomach tissues from the mice were analysed by RNA-sequencing on an Illumina platform.
To achieve these aims, data were subject to a quality control evaluation, differential expression and functional enrichment analyses, as well as a congruence analysis.
[…] At this threshold, differentially expressed genes were identified in all contrasts.
As mentioned previously, for statistical robustness, only those with an adjusted p-value <0.05 should be considered. […]
The amount of overlap is represented in FIGS. 28A-28D. For each comparison, the value in the plot represents the number of intersecting selected genes and the color represents the Jaccard index (the intersection over the union) for the two contrasts under consideration.
Scatter plots, upset plots, venn diagrams, hypergeometric tests and Spearman rank correlation tests were employed to assess the level of overlap as shown in FIGS. 15-27.

[1] = Mouse weight after deuterated ENT-03 i.p. (FIG. 12); type: in vivo; settings: i.p. to mice
Text: The presence of the deuterium on the side chain likely slows the action of the 2-methylacyl-coenzyme A racemase on C-25, the subsequent action of the dehydrogenase that produces the 24,25-trans-unsaturated derivative by removing the deuterium atoms at C24 and C25, and the subsequent hydration and oxidation at the C24 bond catalyzed by the D-bifunctional protein. Instead, the metabolism of ENT-03D3 will begin with the oxidation at C24 by CYP46A1, yielding the following compound: […]

[2] = Pharmacokinetic profile, intravenous administration; type: in vivo, male SD Rats; settings: I.V. 5 mg/kg, plasma; for MRT inf: read-out: MRTInf_obs
Method: The objective of this example was to determine the pharmacokinetic profile of ENT-03 (Compound III) via intravenous and oral administration in male SD Rats.
Animal feeding control: Animals were food fasted overnight prior to dosing and fed 4 hours after administration having free access to water.
PK Sample Analyses: Concentrations of ENT-03 (Compound III) in the plasma and dose samples were analyzed using a LC-MS/MS method. WinNonlin (Phoenix™, version 6.1) or other similar software was used for pharmacokinetic calculations. The following pharmacokinetic parameters were calculated, whenever possible from the plasma concentration versus time data.
IV Bolus administration: T1/2, C0, AUClast, AUCinf, MRTinf, Cl, Vss, Number of Points for Regression.
The pharmacokinetic data was described using descriptive statistics such as mean and standard deviation. All the residual biological samples were retained in the freezer ([…]) for a period of 6 months after testing.

hAPP-J20 mice = assay: Morris water maze, amyloid Alzheimer's model; type: in vivo; settings: 2.5 mg/kg/wk i.p. over 6 weeks, vs vehicle treated littermates
Text: (§1) The Morris water maze was used to test the effect of ENT-03 on spatial learning and memory deficits in 2 mouse models of familial Alzheimer's disease, hAPP-J20 mice that express a double mutant of the human amyloid precursor protein (Mucke et al., 2000), and PS19 mice that express the P301S mutant of the human microtubule associated protein tau (Yoshiyama et al., 2007).
(§2) hAPP-J20 mice expressing human APP bearing the Swedish and Indiana familial mutations (B6.Cg-Zbtb20Tg(PDGFB-APPSwInd)20Lms/2Mmjax, (Mucke et al., 2000)) and PS19 mice expressing the P301S mutation of human tau protein (B6;C3-Tg(Prnp-MAPT*P301S)PS19Vle/J (Yoshiyama et al., 2007)) were purchased from Jackson laboratories and maintained as colonies in the animal facility of the University of Ottawa. Heterozygous hAPP-J20 and PS19 mice were used. Genotypes were verified by PCR using genomic DNA isolated from tail or ear biopsies. […]
(§3) The Morris water maze test to analyze the ability of mice to learn and remember the location of a submerged platform in a pool containing opaque water was conducted in the Faculty of Medicine Behavior Core Laboratory at the University of Ottawa. […] On the probe day, crossings of the platform area and target quadrant were counted and swimming speed was measured using Ethovision automated video tracking software (Noldus).

PS19 mice = assay: Morris water maze, tau Alzheimer's model; type: in vivo; settings: 2.5 mg/kg/wk i.p. over 6 weeks, vs vehicle treated littermates
Text: as §1, §2, §3

[3] = individual rats (Rat 1-3), listed as ENT-03 (Compound III), 5 mg/kg
[4] = male, SD, rat, iv, 5 mg/kg, Mean
[5] = male, SD, rat, iv, 5 mg/kg, individual rats (Rat 1-3)

In the case of `CC(C)[C@@H](CC[C@@H](C)[C@H]1CC[C@H]2[C@@H]3[C@H](O)C[C@H]4C[C@@H](NCCCNCCCCNCCCN)CC[C@]4(C)[C@H]3CC[C@]12C)OS(=O)(=O)O` (single isomer, unassigned) [ENT-02 (MSI-1436), trodusquemine], the “overlap of genes downregulated in aged mice with genes up-regulated by treatment in old mice” value (stomach tissues; hypergeometric P<0.0001) is reported as “overlapped significantly” and the “overlap of genes down-regulated in ageing and up-regulated in treatment with those of ENT-03” value (stomach tissues; stomach, congruence analysis) is reported as “did not overlap with those affected by ENT-03”.
With `CC(CCC[C@@H](C)[C@H]1CCC2C3C(CC[C@@]21C)[C@@]1(C)CC[C@H](NCCCNCCCCNCCCN)C[C@@H]1C[C@H]3O)C(=O)O` (single isomer, unassigned) [ENT-03] the “effect on weight” value [1] was “loss of weight”, the AUC_%Extrap_obs ([2]; Mean) was 38.2% and the AUClast/D ([2]; Mean) was 122000 h·ng/mL per mg/kg. For the same compound, the Cl_obs ([2]; Mean) was 5.1 mL/h/kg, the Vss_obs ([2]; Mean) was 0.125 L/kg and the AUCInf [2, 3] was 941.13 µg·h/mL and 1095.763 µg·h/mL. For the same compound, the AUC_%Extrap_obs [2, 3] was 39.6% and 35.4% and 39.7%, the AUClast [2, 3] was 608.321 µg·h/mL and 661.154 µg·h/mL and the AUClast/D [2, 3] was 112000 h·ng/mL per mg/kg and 122000 h·ng/mL per mg/kg and 132000 h·ng/mL per mg/kg. For the same compound, the C0 [2, 3] was 102.409 µg/mL and 76.2 µg/mL, the Cl_obs [2, 3] was 5.42 mL/h/kg and 5.31 mL/h/kg and 4.57 mL/h/kg and the MRTInf_obs [2, 3] was 22.9 h and 25.5 h. For the same compound, the T1/2 [2, 3] was 17.5 h and 18.6 h, the Vss_obs [2, 3] was 0.137 L/kg and 0.122 L/kg and 0.116 L/kg and the AUC(0-inf) [2, 4] was 986 µg·h/mL. It also gave an AUC(0-t) [2, 4] of 609 µg·h/mL, a half-life [2, 4] of 18.2 h and a C0 ([2]; male, SD, rat, iv, 5 mg/kg, Mean, read-out: C0) of 86.3 µg/mL. For the same compound, the MRT inf [2, 4] was 24.6 h, the AUC(0-inf) [2, 5] was 922 µg·h/mL and the AUC(0-t) [2, 5] was 558 µg·h/mL. It also gave a half-life [2, 5] of 18.6 h, a C0 ([2]; male, SD, rat, iv, 5 mg/kg, individual rats (Rat 1-3), read-out: C0) of 80.4 µg/mL and an MRT inf [2, 5] of 25.3 h. For the same compound, the “learning during the training phase (latency to find the hidden platform)” value (hAPP-J20 mice) was “improved; also recorded: decreased the latency to find the hidden platform”, the “memory on the probe day (platform area crossings, time in platform area)” value (hAPP-J20 mice) was “improved memory” and the “learning during the training phase” value (PS19 mice) was “improved”. For the same compound, the “memory on the probe day” value (PS19 mice) was “improved”.
